Experimental data taken from patent US20070020329A1, “Methods of formulating linezolid” (priority 2005, published 2007).

Assay: Polymorphic stability of solid linezolid Form IV, alone and in contact with solvents
Format: physicochemical
Description: As a consequence, pharmaceutical compositions comprising linezolid Form IV substantially free of linezolid Form II are difficult to prepare.

With `CC(=O)NC[C@H]1CN(c2ccc(N3CCOCC3)c(F)c2)C(=O)O1` [linezolid Form IV, N-[[(5S)-3-[3-fluoro-4-(4-morpholinyl)phenyl]-2-oxo-5-oxazolidinyl]methyl]acetamide] the “conversion of Form IV to Form II (in words)” value (contacted with solvents, in particular ethanol) was “readily transforms to linezolid Form II” and the “conversion of solid Form IV to Form II (in words)” value (solid, at least 3 months at temperatures between 25 and 40° C.) was “does not convert to linezolid Form II”.
